≈ marks a conversion by molar mass, not a printed value. Where two headings read alike, the source gives them in different places.
How the values were obtained:
[1] = tested on: E. coli GC 2231; assay: MIC, broth microdilution; conditions: Escherichia coli
[2] = tested on: E. coli GC 2232; assay: MIC, broth microdilution; conditions: Escherichia coli
[3] = tested on: E. coli GC 2272; assay: MIC, broth microdilution; conditions: Escherichia coli
[4] = tested on: E. coli GC 4560; assay: MIC, broth microdilution; conditions: Escherichia coli
[5] = tested on: E. coli GC 6465; assay: MIC, broth microdilution; conditions: Escherichia coli
[6] = tested on: E. coli GC 3226; assay: MIC, broth microdilution; conditions: Escherichia coli
[7] = tested on: E. coli GC 2203; assay: MIC, broth microdilution; conditions: Escherichia coli
[8] = tested on: S. typhimurium GC 2172; assay: MIC, broth microdilution; conditions: Salmonella enterica, TYPHIMURIUM
[9] = tested on: S. aureus GC 6466; assay: MIC, broth microdilution; conditions: Staphylococcus aureus
Method: Antimicrobial susceptibility testing. The in vitro activities of the antibiotics are determined by the broth microdilution method as recommended by the National Committee for Clinical Laboratory Standards (NCCLS) (1). Mueller-Hinton II broth (MHBII)(BBL Cockeysville, Md.) is the medium employed in the testing procedures. Microtiter plates containing serial dilutions of each antimicrobial agent are inoculated with each organism to yield the appropriate density (10^5 CFU/ml) in a 100 μl final volume. The plates are incubated for 18-22 hours at 35° C. in ambient air. […] Standard Pharmacological Test Procedures
Presented in Tables I-XIII are representative compounds of Formula I which were evaluated against a panel of 40 selected gram-positive and gram-negative bacteria strains by pre-incubation in water, mouse serum or human serum. Representative compounds were first incubated in mouse serum for an hour prior to the in vitro testing against a panel of selected gram-positive and gram-negative bacteria strains. All compounds were also pre-incubated in water for an hour prior to testing as control. Representative compounds of Formula I were incubated in human serum prior to MIC determination.

[10] = tested on: S. aureus GC 6467; assay: MIC, broth microdilution; conditions: Staphylococcus aureus
[11] = tested on: S. aureus GC 4536; assay: MIC, broth microdilution; conditions: Staphylococcus aureus
[12] = tested on: S. aureus GC 6469; assay: MIC, broth microdilution; conditions: Staphylococcus aureus
[13] = tested on: E. faecalis GC 4555; assay: MIC, broth microdilution; conditions: Enterococcus faecalis
[14] = tested on: E. faecalis GC 2265; assay: MIC, broth microdilution; conditions: Enterococcus faecalis
[15] = tested on: E. faecalis GC 2267; assay: MIC, broth microdilution; conditions: Enterococcus faecalis
[16] = tested on: E. faecium GC 2243; assay: MIC, broth microdilution; conditions: Enterococcus faecium
[17] = tested on: S. pneumoniae* GC 4465; assay: MIC, broth microdilution; conditions: Streptococcus pneumoniae
[18] = tested on: S. agalactiae GC 4564; assay: MIC, broth microdilution; conditions: Streptococcus agalactiae
[19] = tested on: Staph.; assay: Range of MIC for Staph. strains, including MRSA; conditions: Staphylococcus aureus
[20] = read-out: MINIMAL INHIBITORY CONCENTRATION MIC, Human Serum
[21] = read-out: MINIMAL INHIBITORY CONCENTRATION MIC, Mouse Serum
[22] = read-out: MINIMAL INHIBITORY CONCENTRATION MIC, Water

Molecule `COC(=O)N(CC(=O)Nc1cc(N(C)C)c2c(c1O)C(=O)C1=C(O)[C@]3(O)C(=O)C(C(N)=O)=C(O)[C@@H](N(C)C)[C@@H]3C[C@@H]1C2)C(C)(C)C` [Example 60, methyl 2-{[(5aR,6aS,7S,10aS)-9-(aminocarbonyl)-4,7-bis(dimethylamino)-1,8,10a,11-tetrahydroxy-10,12-dioxo-5,5a,6,6a,7,10,10a,12-octahydrotetracen-2-yl]amino}-2-oxoethyl(tert-butyl)carbamate] has an MIC ([1]; GC2231, read-out: MINIMAL INHIBITORY CONCENTRATION MIC, Human Serum) of over 64 µg/mL, an MIC ([1]; GC2231, read-out: MINIMAL INHIBITORY CONCENTRATION MIC, Mouse Serum) of over 64 µg/mL and an MIC ([1]; GC2231, read-out: MINIMAL INHIBITORY CONCENTRATION MIC, Water) of over 64 µg/mL. For the same molecule, the MIC ([2]; GC2232, read-out: MINIMAL INHIBITORY CONCENTRATION MIC, Human Serum) was over 64 µg/mL, the MIC ([2]; GC2232, read-out: MINIMAL INHIBITORY CONCENTRATION MIC, Mouse Serum) was over 64 µg/mL and the MIC ([2]; GC2232, read-out: MINIMAL INHIBITORY CONCENTRATION MIC, Water) was over 64 µg/mL. The MIC ([3]; GC2272, read-out: MINIMAL INHIBITORY CONCENTRATION MIC, Human Serum) was 32 µg/mL (≈ 49.7 µM), the MIC ([3]; GC2272, read-out: MINIMAL INHIBITORY CONCENTRATION MIC, Mouse Serum) was 32 µg/mL (≈ 49.7 µM) and the MIC ([3]; GC2272, read-out: MINIMAL INHIBITORY CONCENTRATION MIC, Water) was 64 µg/mL (≈ 99.4 µM). The MIC ([4]; GC4560, read-out: MINIMAL INHIBITORY CONCENTRATION MIC, Human Serum) was 1 µg/mL (≈ 1.55 µM), the MIC ([4]; GC4560, read-out: MINIMAL INHIBITORY CONCENTRATION MIC, Mouse Serum) was 1 µg/mL (≈ 1.55 µM) and the MIC ([4]; GC4560, read-out: MINIMAL INHIBITORY CONCENTRATION MIC, Water) was 2 µg/mL (≈ 3.11 µM). The MIC ([5]; GC6465, read-out: MINIMAL INHIBITORY CONCENTRATION MIC, Human Serum) was over 64 µg/mL, the MIC ([5]; GC6465, read-out: MINIMAL INHIBITORY CONCENTRATION MIC, Mouse Serum) was over 64 µg/mL and the MIC ([5]; GC6465, read-out: MINIMAL INHIBITORY CONCENTRATION MIC, Water) was over 64 µg/mL. The MIC ([6]; GC3226, read-out: MINIMAL INHIBITORY CONCENTRATION MIC, Human Serum) was over 64 µg/mL, the MIC ([6]; GC3226, read-out: MINIMAL INHIBITORY CONCENTRATION MIC, Mouse Serum) was over 64 µg/mL and the MIC ([6]; GC3226, read-out: MINIMAL INHIBITORY CONCENTRATION MIC, Water) was over 64 µg/mL. The MIC ([7]; GC2203, read-out: MINIMAL INHIBITORY CONCENTRATION MIC, Human Serum) was over 64 µg/mL, the MIC ([7]; GC2203, read-out: MINIMAL INHIBITORY CONCENTRATION MIC, Mouse Serum) was over 64 µg/mL and the MIC ([7]; GC2203, read-out: MINIMAL INHIBITORY CONCENTRATION MIC, Water) was over 64 µg/mL. It also gave an MIC [8, 20] of over 64 µg/mL, an MIC [8, 21] of over 64 µg/mL and an MIC [8, 22] of over 64 µg/mL. The MIC ([9]; GC6466, read-out: MINIMAL INHIBITORY CONCENTRATION MIC, Human Serum) was 4 µg/mL (≈ 6.21 µM), the MIC ([9]; GC6466, read-out: MINIMAL INHIBITORY CONCENTRATION MIC, Mouse Serum) was 4 µg/mL (≈ 6.21 µM) and the MIC ([9]; GC6466, read-out: MINIMAL INHIBITORY CONCENTRATION MIC, Water) was 8 µg/mL (≈ 12.4 µM). The MIC ([10]; GC6467, read-out: MINIMAL INHIBITORY CONCENTRATION MIC, Human Serum) was 4 µg/mL (≈ 6.21 µM), the MIC ([10]; GC6467, read-out: MINIMAL INHIBITORY CONCENTRATION MIC, Mouse Serum) was 4 µg/mL (≈ 6.21 µM) and the MIC ([10]; GC6467, read-out: MINIMAL INHIBITORY CONCENTRATION MIC, Water) was 8 µg/mL (≈ 12.4 µM). It also gave an MIC ([11]; GC4536, read-out: MINIMAL INHIBITORY CONCENTRATION MIC, Human Serum) of 2 µg/mL (≈ 3.11 µM), an MIC ([11]; GC4536, read-out: MINIMAL INHIBITORY CONCENTRATION MIC, Mouse Serum) of 2 µg/mL (≈ 3.11 µM) and an MIC ([11]; GC4536, read-out: MINIMAL INHIBITORY CONCENTRATION MIC, Water) of 4 µg/mL (≈ 6.21 µM). For the same molecule, the MIC ([12]; GC6469, read-out: MINIMAL INHIBITORY CONCENTRATION MIC, Human Serum) was 2 µg/mL (≈ 3.11 µM), the MIC ([12]; GC6469, read-out: MINIMAL INHIBITORY CONCENTRATION MIC, Mouse Serum) was 2 µg/mL (≈ 3.11 µM) and the MIC ([12]; GC6469, read-out: MINIMAL INHIBITORY CONCENTRATION MIC, Water) was 4 µg/mL (≈ 6.21 µM). The MIC ([13]; GC4555, read-out: MINIMAL INHIBITORY CONCENTRATION MIC, Human Serum) was 2 µg/mL (≈ 3.11 µM), the MIC ([13]; GC4555, read-out: MINIMAL INHIBITORY CONCENTRATION MIC, Mouse Serum) was 4 µg/mL (≈ 6.21 µM) and the MIC ([13]; GC4555, read-out: MINIMAL INHIBITORY CONCENTRATION MIC, Water) was 4 µg/mL (≈ 6.21 µM). It also gave an MIC ([14]; GC2265, read-out: MINIMAL INHIBITORY CONCENTRATION MIC, Human Serum) of 4 µg/mL (≈ 6.21 µM), an MIC ([14]; GC2265, read-out: MINIMAL INHIBITORY CONCENTRATION MIC, Mouse Serum) of 8 µg/mL (≈ 12.4 µM) and an MIC ([14]; GC2265, read-out: MINIMAL INHIBITORY CONCENTRATION MIC, Water) of 8 µg/mL (≈ 12.4 µM). The MIC ([15]; GC2267, read-out: MINIMAL INHIBITORY CONCENTRATION MIC, Human Serum) was 4 µg/mL (≈ 6.21 µM), the MIC ([15]; GC2267, read-out: MINIMAL INHIBITORY CONCENTRATION MIC, Mouse Serum) was 8 µg/mL (≈ 12.4 µM) and the MIC ([15]; GC2267, read-out: MINIMAL INHIBITORY CONCENTRATION MIC, Water) was 8 µg/mL (≈ 12.4 µM). It also gave an MIC ([16]; GC2243, read-out: MINIMAL INHIBITORY CONCENTRATION MIC, Human Serum) of 2 µg/mL (≈ 3.11 µM), an MIC ([16]; GC2243, read-out: MINIMAL INHIBITORY CONCENTRATION MIC, Mouse Serum) of 2 µg/mL (≈ 3.11 µM) and an MIC ([16]; GC2243, read-out: MINIMAL INHIBITORY CONCENTRATION MIC, Water) of 4 µg/mL (≈ 6.21 µM). It also gave an MIC [17, 20] of 1 µg/mL (≈ 1.55 µM), an MIC [17, 21] of 1 µg/mL (≈ 1.55 µM) and an MIC [17, 22] of 2 µg/mL (≈ 3.11 µM). For the same molecule, the MIC ([18]; GC4564, read-out: MINIMAL INHIBITORY CONCENTRATION MIC, Human Serum) was 4 µg/mL (≈ 6.21 µM), the MIC ([18]; GC4564, read-out: MINIMAL INHIBITORY CONCENTRATION MIC, Mouse Serum) was 4 µg/mL (≈ 6.21 µM) and the MIC ([18]; GC4564, read-out: MINIMAL INHIBITORY CONCENTRATION MIC, Water) was 4 µg/mL (≈ 6.21 µM). For the same molecule, the MIC ([19]; MRSA, read-out: Range of MIC, Staph (Mouse Serum)) was 2 to 8 µg/mL (≈ 3.11 to 12.4 µM), the MIC ([19]; MRSA, read-out: Range of MIC, Staph (Water)) was 4 to 16 µg/mL (≈ 6.21 to 24.9 µM) and the MIC ([19]; read-out: Minimum inhibitory concentration (MIC), Staph (Human Serum)) was 2 to 8 µg/mL (≈ 3.11 to 12.4 µM). It also gave an MIC ([19]; read-out: Minimum inhibitory concentration (MIC), Staph (Water)) of 4 to 16 µg/mL (≈ 6.21 to 24.9 µM).
